What all share (type): cell-based
For one assay, the target named is T1, IKZF1 (Homo sapiens, UniProt Q13422+Q96SW2).
T1 construct: expressed in transfected cells
Description: Prolabel quantification of IKZF1 protein levels in GripTite 293 MSR cell line. Particulars: Pro-label assay; for percent IKZF1 protein reduction at 10 µM: 24 h; for DC50: Ikaros degradation, read-out: IKZF1 EC50. An excerpt:
(§1) Example 18: Prolabel Quantification of IKZF1, GSPT1, or SALL4 protein levels in GripTite™ 293 MSR Cell line
(§2) The Prolabel system from DiscoverX was used to develop high-throughput and quantitative assays to measure changes in IKZF1, GSPT1, and SALL4 protein levels in response to compounds. The prolabel tag is derived from the alpha fragment of beta galactosidase and has the following protein sequence: mssnslavvlgrrdwenpgvtglnrlaahppfaswrnseeartdrpsqqlrsinge (SEQ ID NO. 1). The complementary fragment of beta-galactosidase (from DiscoverX), is added to the prolabel tag to form an active beta galactosidase enzyme whose activity can be precisely measured. In this way, the levels of a fusion protein with the prolabel tag can be quantified in cell lysates.
(§3) Lentiviral vectors, based on the Invitrogen pLenti6.2/V5 DEST backbone, were constructed that placed the prolabel tag upstream of IKZF1, GSPT1, or SALL4 and expressed the fusion protein from a CMV promoter.
(§4) To ensure moderate and consistent expression of the prolabel fusion proteins across all cells in the population, stable cell lines were constructed from cells expressing a single copy of the construct. Lentivirus packaged with the constructs was made using the Virapower kit from Invitrogen. Strongly adherent 293GT cell, GripTite 293 MSR cells from Thermo Fisher Scientific (Catalog number: R79507), were infected with the virus at low multiplicity of infection and selected by 5 μg/mL blasticidin for 2 weeks.
(§5) The levels of prolabel tagged fusion proteins in compound treated cell lines were measured as follows:
(§6) Day 1, Cells were diluted to 1.0×10^6 cells/mL in normal growth medium. 17.5 μL of cells were plated in each well of a solid white 384 well plate. Plates were incubated overnight in a 37° C. tissue culture incubator.
(§7) Day 2, Serial dilutions of compounds were made in 384 well plates from 10 mM stocks. 15 μL of DMSO was added to each well of a 384 well plate. In the first column, 15 μL of stock compound was added. The solution was mixed and 15 μL was transferred to the next column. This was repeated until 20 two-fold dilutions were prepared. 2.5 μL of the diluted compounds were transferred into 60 μL of cell culture medium in another 384 well plate, and mixed well. 2.5 μL of this mixture was added to the plated cells. The final DMSO concentration was 0.5% and the highest concentration of compound was 50 μM. Plates were incubated overnight (e.g., about 14 h, 18 h, or 24 h) in a 37° C. tissue culture incubator.
Day 3, Plates were removed from the incubator and allowed to equilibrate at room temperature for 30 minutes. Prolabel substrate (DiscoverX PathHunter Prolabel Detection Kit, User manual: 93-0180) was added as described by the manufacturers protocols. Plates were incubated at room temperature for three hours and luminescence was read using an Envision reader (Perkin Elmer) Data was analyzed and visualized using the Spotfire software package.

Another assay deals with T2, GSPT1 (Homo sapiens, UniProt P15170+Q96SW2).
T2 construct: expressed in transfected cells
Description: Prolabel quantification of GSPT1 protein levels in GripTite 293 MSR cell line. Conditions: Pro-label assay; for DC50: GSPT1 degradation, read-out: GSPT1 EC50.
Text: as §1, §2, §3, §4, §5, §6, §7
(§8) Day 3, Plates were removed from the incubator and allowed to equilibrate at room temperature for 30 minutes. […] Plates were incubated at room temperature for three hours and luminescence was read using an Envision reader (Perkin Elmer) Data was analyzed and visualized using the Spotfire software package.

The target of another assay is T3, SALL4 (Homo sapiens, UniProt Q96SW2+Q9UJQ4).
T3 construct: expressed in transfected cells
Description: Prolabel quantification of SALL4 protein levels in GripTite 293 MSR cell line. Conditions: Pro-label assay.
Text: as §1, §2
Lentiviral vectors, based on the Invitrogen pLenti6.2/V5 DEST backbone, were constructed that placed the prolabel tag upstream of IKZF1, GSPT1, or SALL4 and expressed the fusion protein from a CMV promoter. […]
The levels of prolabel tagged fusion proteins in compound treated cell lines were measured as follows: […]
as §8

T1 sequence (Q13422 whole entry, species assumed): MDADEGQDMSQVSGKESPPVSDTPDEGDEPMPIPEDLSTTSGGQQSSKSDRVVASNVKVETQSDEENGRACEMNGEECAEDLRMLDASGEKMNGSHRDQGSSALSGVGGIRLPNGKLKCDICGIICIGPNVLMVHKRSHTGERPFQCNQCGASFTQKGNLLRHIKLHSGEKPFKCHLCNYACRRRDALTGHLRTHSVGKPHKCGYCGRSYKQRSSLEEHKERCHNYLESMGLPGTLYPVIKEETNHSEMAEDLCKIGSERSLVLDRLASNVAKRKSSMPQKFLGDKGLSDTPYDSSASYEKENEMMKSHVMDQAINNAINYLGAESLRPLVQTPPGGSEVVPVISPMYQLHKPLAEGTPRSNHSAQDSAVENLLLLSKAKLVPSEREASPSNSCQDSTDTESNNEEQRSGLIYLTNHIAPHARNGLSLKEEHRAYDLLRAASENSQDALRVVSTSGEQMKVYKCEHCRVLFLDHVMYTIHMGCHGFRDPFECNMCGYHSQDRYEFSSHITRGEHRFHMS
T1 sequence (Q96SW2 whole entry, species assumed): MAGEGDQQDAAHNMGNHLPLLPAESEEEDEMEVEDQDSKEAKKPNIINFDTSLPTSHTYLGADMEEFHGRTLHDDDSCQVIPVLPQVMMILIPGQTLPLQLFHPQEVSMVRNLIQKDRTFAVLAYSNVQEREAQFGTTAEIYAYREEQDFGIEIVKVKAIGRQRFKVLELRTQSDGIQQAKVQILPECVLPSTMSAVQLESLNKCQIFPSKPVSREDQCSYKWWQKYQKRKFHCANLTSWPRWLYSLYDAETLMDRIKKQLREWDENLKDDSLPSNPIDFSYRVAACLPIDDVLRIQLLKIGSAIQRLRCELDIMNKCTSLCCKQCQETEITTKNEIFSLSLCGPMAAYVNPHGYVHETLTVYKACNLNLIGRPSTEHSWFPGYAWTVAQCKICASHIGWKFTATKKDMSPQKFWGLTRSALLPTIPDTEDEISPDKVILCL
T1 sequence (Q16531 whole entry partner, species assumed): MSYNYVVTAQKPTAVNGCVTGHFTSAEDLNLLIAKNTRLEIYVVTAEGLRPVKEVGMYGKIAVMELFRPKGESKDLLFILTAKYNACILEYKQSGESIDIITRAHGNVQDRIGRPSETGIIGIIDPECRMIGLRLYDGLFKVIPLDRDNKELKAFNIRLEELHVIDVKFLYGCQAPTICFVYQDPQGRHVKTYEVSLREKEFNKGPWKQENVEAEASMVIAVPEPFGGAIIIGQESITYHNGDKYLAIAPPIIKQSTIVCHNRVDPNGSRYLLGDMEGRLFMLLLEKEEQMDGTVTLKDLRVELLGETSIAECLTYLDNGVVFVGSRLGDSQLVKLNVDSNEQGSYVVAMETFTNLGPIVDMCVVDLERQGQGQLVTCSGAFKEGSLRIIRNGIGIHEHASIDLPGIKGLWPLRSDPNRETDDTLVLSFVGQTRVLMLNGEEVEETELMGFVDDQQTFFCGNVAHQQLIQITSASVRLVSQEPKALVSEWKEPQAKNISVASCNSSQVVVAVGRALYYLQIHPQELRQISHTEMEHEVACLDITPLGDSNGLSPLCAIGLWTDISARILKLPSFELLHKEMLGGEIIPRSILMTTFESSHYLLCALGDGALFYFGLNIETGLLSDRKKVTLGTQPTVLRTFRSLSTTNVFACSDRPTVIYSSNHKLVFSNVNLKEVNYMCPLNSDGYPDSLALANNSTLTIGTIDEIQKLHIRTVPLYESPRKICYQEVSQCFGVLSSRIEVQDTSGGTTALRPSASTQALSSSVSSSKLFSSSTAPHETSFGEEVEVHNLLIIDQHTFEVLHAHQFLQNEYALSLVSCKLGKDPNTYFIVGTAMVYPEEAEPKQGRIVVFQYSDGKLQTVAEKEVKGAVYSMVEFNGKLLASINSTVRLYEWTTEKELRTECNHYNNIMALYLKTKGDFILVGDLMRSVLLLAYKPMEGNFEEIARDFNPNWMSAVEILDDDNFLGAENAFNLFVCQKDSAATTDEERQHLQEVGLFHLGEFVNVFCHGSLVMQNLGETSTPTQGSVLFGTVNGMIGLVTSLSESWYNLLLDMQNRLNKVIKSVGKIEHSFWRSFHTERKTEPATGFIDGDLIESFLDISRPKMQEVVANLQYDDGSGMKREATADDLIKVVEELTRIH
T2 sequence (P15170 whole entry, species assumed): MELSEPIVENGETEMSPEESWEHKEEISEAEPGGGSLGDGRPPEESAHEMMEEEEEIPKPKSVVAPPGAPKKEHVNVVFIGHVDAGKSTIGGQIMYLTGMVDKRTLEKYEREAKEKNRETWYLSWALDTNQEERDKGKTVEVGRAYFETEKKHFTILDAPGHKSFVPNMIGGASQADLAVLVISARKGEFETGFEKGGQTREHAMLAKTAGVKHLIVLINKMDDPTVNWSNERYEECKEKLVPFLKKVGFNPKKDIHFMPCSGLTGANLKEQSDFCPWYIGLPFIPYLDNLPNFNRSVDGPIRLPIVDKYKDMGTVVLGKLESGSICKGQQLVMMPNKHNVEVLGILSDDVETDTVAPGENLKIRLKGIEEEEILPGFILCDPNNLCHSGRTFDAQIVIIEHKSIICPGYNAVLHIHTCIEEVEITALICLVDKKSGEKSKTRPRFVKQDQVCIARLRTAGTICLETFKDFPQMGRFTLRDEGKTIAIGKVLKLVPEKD
T2 sequence (Q96SW2 whole entry, species assumed): as the sequence (Q96SW2 whole entry, species assumed) above
T2 sequence (Q16531 whole entry partner, species assumed): as the sequence (Q16531 whole entry partner, species assumed) above
T3 sequence (Q9UJQ4 whole entry, species assumed): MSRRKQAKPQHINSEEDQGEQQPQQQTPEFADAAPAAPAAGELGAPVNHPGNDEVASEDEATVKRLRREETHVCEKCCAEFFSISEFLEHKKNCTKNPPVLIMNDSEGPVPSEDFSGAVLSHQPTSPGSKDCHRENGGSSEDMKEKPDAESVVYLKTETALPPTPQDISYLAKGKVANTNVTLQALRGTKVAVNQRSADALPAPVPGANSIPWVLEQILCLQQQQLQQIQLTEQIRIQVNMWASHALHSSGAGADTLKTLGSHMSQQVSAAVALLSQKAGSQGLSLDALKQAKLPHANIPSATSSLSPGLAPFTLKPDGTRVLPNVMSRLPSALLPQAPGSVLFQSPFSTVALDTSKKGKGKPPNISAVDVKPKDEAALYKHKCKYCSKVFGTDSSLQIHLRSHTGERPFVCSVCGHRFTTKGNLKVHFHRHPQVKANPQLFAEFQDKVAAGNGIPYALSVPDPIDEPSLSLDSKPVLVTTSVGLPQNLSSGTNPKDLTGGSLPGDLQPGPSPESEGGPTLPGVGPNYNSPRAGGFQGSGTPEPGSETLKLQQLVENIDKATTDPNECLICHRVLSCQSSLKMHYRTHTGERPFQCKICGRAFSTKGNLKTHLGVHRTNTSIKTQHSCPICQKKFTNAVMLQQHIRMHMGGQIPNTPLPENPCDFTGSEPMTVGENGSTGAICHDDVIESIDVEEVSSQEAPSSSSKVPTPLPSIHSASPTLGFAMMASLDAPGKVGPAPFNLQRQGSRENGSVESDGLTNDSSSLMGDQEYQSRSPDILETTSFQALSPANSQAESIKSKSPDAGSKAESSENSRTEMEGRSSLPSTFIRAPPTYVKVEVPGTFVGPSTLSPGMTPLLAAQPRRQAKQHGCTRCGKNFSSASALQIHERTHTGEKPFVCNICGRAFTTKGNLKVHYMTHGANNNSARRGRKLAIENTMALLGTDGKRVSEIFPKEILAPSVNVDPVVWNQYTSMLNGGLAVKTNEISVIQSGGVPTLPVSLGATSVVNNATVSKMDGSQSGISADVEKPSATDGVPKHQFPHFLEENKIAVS
T3 sequence (Q96SW2 whole entry, species assumed): as the sequence (Q96SW2 whole entry, species assumed) above
T3 sequence (Q16531 whole entry partner, species assumed): as the sequence (Q16531 whole entry partner, species assumed) above

Take `O=C1CCN(c2coc3ccccc23)C(=O)N1` [Compound I-1, 1-(Benzofuran-3-yl)dihydropyrimidine-2,4(1H,3H)-dione]: at IKZF1, the percent IKZF1 protein reduction at 10 µM stood at 75% and the DC50 worked out at 57 nM. `O=c1ccn(-c2cnc3cc(Br)ccn23)c(=O)[nH]1` [Compound I-18, 1-(7-Bromoimidazo[1,2-a]pyridin-3-yl)pyrimidine-2,4(1H,3H)-dione] had a percent IKZF1 protein reduction at 10 µM on IKZF1 of 40%. As for `O=C1CCN(c2coc3ccc(I)cc23)C(=O)N1` [Compound I-4, 1-(5-Iodobenzofuran-3-yl)dihydropyrimidine-2,4(1H,3H)-dione], at IKZF1, the percent IKZF1 protein reduction at 10 µM was 60% and the DC50 stood at 51 nM. With `CC(C)(C)c1ccc(C(=O)N2CC=C(c3ccn4c(N5CCC(=O)NC5=O)cnc4c3)CC2)cc1` [Compound I-9, 1-(7-(1-(4-(tert-Butyl)benzoyl)-1,2,3,6-tetrahydropyridin-4-yl)imidazo[1,2-a]pyridin-3-yl)dihydropyrimidine-2,4(1H,3H)-dione], at GSPT1, the “GSPT1 % protein reduction at 10 μM, 24 h” value is 80% and the DC50 came to 170 nM. `O=C1CCN(c2cnn3cc(Cl)ccc23)C(=O)N1` [Compound I-7, 1-(6-Chloropyrazolo[1,5-a]pyridin-3-yl)dihydropyrimidine-2,4(1H,3H)-dione]: on IKZF1, the percent IKZF1 protein reduction at 10 µM is greater than 90% and the DC50 turned out to be 6 nM.

Turning to `O=C1CCN(c2noc3ccc(Cl)cc23)C(=O)N1` [Compound I-14, 1-(5-Chlorobenzo[d]isoxazol-3-yl)dihydropyrimidine-2,4(1H,3H)-dione], at IKZF1, the percent IKZF1 protein reduction at 10 µM was greater than 90% and the DC50 worked out at 25 nM. In the same order, the values of `O=C1CCN(c2coc3ccc(NC(=O)Oc4ccccc4)cc23)C(=O)N1` [Compound I-6, Phenyl (3-(2,4-dioxotetrahydropyrimidin-1(2H)-yl)benzofuran-5-yl)carbamate] are 75% and 120 nM.

Regarding `O=C1CCN(c2coc3cc(C(=O)NCc4ccccc4)ccc23)C(=O)N1` [Compound I-12, N-benzyl-3-(2,4-dioxotetrahydropyrimidin-1(2H)-yl)benzofuran-6-carboxamide], the DC50 on IKZF1 is greater than 20000 nM. Take `CN(C)CC#Cc1ccc2c(N3CCC(=O)NC3=O)coc2c1` [Compound I-11, 1-(6-(3-(dimethylamino)prop-1-yn-1-yl)benzofuran-3-yl)dihydropyrimidine-2,4(1H,3H)-dione]: at IKZF1, the percent IKZF1 protein reduction at 10 µM is greater than 90% and the DC50 turned out to be 46 nM. With `O=C1CCN(c2coc3cc(I)ccc23)C(=O)N1` [Compound I-5, 1-(6-Iodobenzofuran-3-yl)dihydropyrimidine-2,4(1H,3H)-dione], at IKZF1, the percent IKZF1 protein reduction at 10 µM was greater than 90% and the DC50 came out at 130 nM. The “SALL4 % protein Reduction at 10 μM, 24 h” value at SALL4 is given as 60%. Regarding `Cc1ccc2c(N3CCC(=O)NC3=O)noc2c1` [Compound I-13, 1-(6-Methylbenzo[d]isoxazol-3-yl)dihydropyrimidine-2,4(1H,3H)-dione], on IKZF1, the percent IKZF1 protein reduction at 10 µM was greater than 90% and the DC50 is 6 nM. In the same order, the values of `Cc1ccc(CCOc2ccc3c(N4CCC(=O)NC4=O)noc3c2)cc1` [Compound I-15, 1-(6-(4-Methylphenethoxy)benzo[d]isoxazol-3-yl)dihydropyrimidine-2,4(1H,3H)-dione] are 80% and 630 nM. In the same order, the values of `O=c1ccn(-c2cnc3cc(C4=CCN(Cc5ccccc5)CC4)ccn23)c(=O)[nH]1` [Compound I-17, 1-(7-(1-Benzyl-1,2,3,6-tetrahydropyridin-4-yl)imidazo[1,2-a]pyridin-3-yl)pyrimidine-2,4(1H,3H)-dione] are 80% and 430 nM.

For the molecule `O=C1CCN(c2cnc3cc(C4=CCN(Cc5ccccc5)CC4)ccn23)C(=O)N1` [Compound I-8, 1-(7-(1-Benzyl-1,2,3,6-tetrahydropyridin-4-yl)imidazo[1,2-a]pyridin-3-yl)dihydropyrimidine-2,4(1H,3H)-dione], on IKZF1, the percent IKZF1 protein reduction at 10 µM is greater than 90% and the DC50 is 41 nM. In the same order, the values of `Cc1ccc2occ(N3CCC(=O)NC3=O)c2c1` [Compound I-3, 1-(5-Methylbenzofuran-3-yl)dihydropyrimidine-2,4(1H,3H)-dione] are greater than 90% and 16 nM. As for `O=C1CCN(c2cnc3ccc(C4CCN(Cc5ccccc5)CC4)cn23)C(=O)N1` [Compound I-10, 1-(6-(1-Benzylpiperidin-4-yl)imidazo[1,2-a]pyridin-3-yl)dihydropyrimidine-2,4(1H,3H)-dione], on GSPT1, the “GSPT1 % protein reduction at 10 μM, 24 h” value is 80% and the DC50 worked out at 170 nM. Moreover, the “SALL4 % protein Reduction at 10 μM, 24 h” value at SALL4 came out at 60%. In the case of `C#Cc1ccc2c(N3CCC(=O)NC3=O)coc2c1` [Compound I-2, 1-(6-Ethynylbenzofuran-3-yl)dihydropyrimidine-2,4(1H,3H)-dione], on IKZF1, the percent IKZF1 protein reduction at 10 µM is greater than 90% and the DC50 was found to be 60 nM. For `O=c1ccn(-c2cnc3ccc(C4CCN(Cc5ccccc5)CC4)cc3c2)c(=O)[nH]1` [Compound I-16, 1-(6-(1-benzylpiperidin-4-yl)quinolin-3-yl)pyrimidine-2,4(1H,3H)-dione], on IKZF1, the DC50 is greater than 20000 nM.

These data come from patent publication US20220363671A1, “GLUE DEGRADERS AND METHODS OF USE THEREOF” (NOVARTIS AG, priority 2019, published 2022).
